Measurements: paper PMC5498548
≈ marks a conversion by molar mass, not a printed value. Where “and” joins values, the source holds several entries; their conditions need not be identical. Identical values can stand only once. Entries after “also recorded” stand apart in the source; their conditions may differ. Counter-ions that a name gives are not always drawn. Like-named read-outs stand apart in the source and are kept apart here.

T1: IdeR (Mycobacterium tuberculosis, UniProt P9WMH1 1-230)
T1 sequence: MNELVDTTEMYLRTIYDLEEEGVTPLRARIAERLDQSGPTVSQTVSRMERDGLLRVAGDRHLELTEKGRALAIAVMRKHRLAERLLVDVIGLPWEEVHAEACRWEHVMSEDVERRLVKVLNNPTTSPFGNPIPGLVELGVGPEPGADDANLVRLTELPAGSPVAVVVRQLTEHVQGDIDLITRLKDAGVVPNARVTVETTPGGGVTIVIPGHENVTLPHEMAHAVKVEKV

B1: mbtA-mbtB intergenic IdeR binding region oligo (dsDNA)
DNA 1: CCCTGTTAGCACAGGCTGCCCTAATTTTAGTG
DNA 2: CACTAAAATTAGGGCAGCCTGTGCTAACAGGG

What was measured:
[1] = target: T2, IdeR (Mycobacterium tuberculosis, UniProt P9WMH1); assay: biochemical; details: EMSA
[2] = target: T2, IdeR; assay: EMSA competition experiments with increasing labeled DNA; format: biochemical; details: DNA 0.8 pmoles to 12.8 pmoles
[3] = test system: M. tuberculosis; assay: Resazurin microtiter assay (REMA) whole cell MIC90 in broth culture; format: cell-based, Mycobacterium tuberculosis; details: MB7H9 medium, Mean ± S.E., three experiments; for MIC90: Mycobacterium tuberculosis, read-out: MIC90 of compounds against M. tuberculosis
[4] = target: T2, IdeR; assay: EMSA with Fe2+ instead of Ni2+: effect of iron on inhibition; format: biochemical; details: 100 µM Fe2+, 100 µg/ml compound
[5] = test system: THP-1 (human monocytic macrophage cell line); assay: Cytotoxicity by REMA in THP-1; format: cell-based; details: for IC50: Homo sapiens, THP-1, 1-200 µg/ml, read-out: Inhibition in THP1 (IC50 in µg/ml); for Inhibition in THP1 (IC50 in µg/ml): 1-200 µg/ml
Procedure: (§1) The cytotoxicity of the compounds was determined by employing REMA using various mammalian cell lines such as THP-1 (human monocytic macrophage cell line), HEK (Human Embryonic Kidney cell line), MDCK (Madine darby canine kidney cell line) and HepG2 (Human hepatocellular carcinoma cell line). 1 × 10^4 cells/well were employed in a sterilized 96-well plate containing serial dilutions of compounds ranging from 1 µg/ml to 200 µg/ml concentration, in their respective media (RPMI for THP-1, DMEM for HEK and HepG2 and MEM for MDCK) with 10% fetal bovine serum and Antibiotic-Antimycotic mix (Invitrogen Corporation, Carlsbad, California, USA). IC50 is defined as the concentration of the compound that causes 50% reduction in the fluorescence intensity indicating 50% viable cells. IC50 values were determined from the results of at least two independent tests and Mean ± S.E.M was calculated from the inhibition curve using GraphPad Prism 5.

[6] = test system: HEK (Human Embryonic Kidney cell line); assay: Cytotoxicity by REMA in HEK; format: cell-based; details: 1-200 µg/ml; for IC50: Homo sapiens, read-out: Inhibition in HEK (IC50 in µg/ml)
Procedure: as §1

[7] = test system: MDCK (Madine darby canine kidney cell line); assay: Cytotoxicity by REMA in MDCK; format: cell-based; details: 1-200 µg/ml; for IC50: Canis lupus familiaris, MDCK, read-out: Inhibition in MDCK (IC50 in µg/ml)
Procedure: as §1

[8] = test system: HepG2 (Human hepatocellular carcinoma cell line); assay: Cytotoxicity by REMA in HepG2; format: cell-based; details: for IC50: Homo sapiens, HepG2, 1-200 µg/ml, read-out: Inhibition in HepG2 (IC50 in µg/ml); for Inhibition in HepG2 (IC50 in µg/ml): 1-200 µg/ml
Procedure: as §1

[9] = test system: intracellular M. tuberculosis H37Rv; assay: Inhibition of intracellular M. tuberculosis in PMA activated THP-1 cells, spotting on agar plates; format: cell-based, Mycobacterium tuberculosis
[10] = target: T1, IdeR; assay: EMSA; details: protein: recombinant; tags: vector pET28c NdeI/HindIII (His-tag, Ni-NTA purified); C-terminal streptactin tag from reverse primer; chain copies: 4; label: Cy5 at 5' end of both strands; blunt (only sense strand printed)
[11] = 0.35 µg IdeR, 0.8 picomoles labeled DNA, 200 µM NiSO4, inhibitor 0.4-100 µg/ml, read-out: IC50 (µg/ml) (converted)
[12] = same values given in µM, read-out: IC50
[13] = at 500 μg/ml (highest concentration tested), infected THP-1, 5 days
[14] = at concentrations lower than 500 μg/ml (100 to 400 μg/ml), infected THP-1

Molecule	IC50 [1, 11]	IC50 [1, 12] [µM]	mode of inhibition in competition with DNA [2]	MIC90 of compounds against M. tuberculosis [3]	MIC90 [3] [µg/mL]	IC50 [5] [µg/mL]	IC50 [6] [µg/mL]	IC50 [7] [µg/mL]	IC50 [8] [µg/mL]	also measured
Nc1ccc(-c2nc3ccccc3s2)cc1S(=O)(=O)O [Compound I-8, 2amino-5-(1,3-benzothiazol-2-yl) benzene sulfonic acid ammoniate]	≤ 81.6 µM and 78 µM	74	competing with DNA	–	–	–	–	–	–	MIC90 of compounds against M. tuberculosis (µg/ml) [3]: no inhibition
O=C(O)C1(Cc2ccc(O)c(O)c2)NCCS1 (centres unmarked) [Compound I-20, 2-(3,4-dihydroxybenzyl)-1,3-thiazolidine-2-carboxylic acid]	9.56 µM	9.56	competing with DNA	–	–	–	–	–	–	effect of iron on the inhibitory potential [4]: no effect
NC(CC(=O)O)C(=O)OCc1cccc(/N=N/c2ccccc2)c1 (centres unmarked) [Compound I-21]	16.7 µM	16.8	competing with DNA	–	–	–	–	–	–	–
Cc1nn(-c2ccccc2)c2c1N=C(C(=O)O)CC(c1ccccc1)=N2 [Compound I-33, 3-methyl-1,7-diphenyl-1,6-dihydropyrazolo[3,4-b][1,4]diazepine-5-carboxylic acid]	63 µM and 63.1 µM	63	–	93 µg/mL and 93.3 ± 8.16 µg/mL	93.3 (≈ 271 µM)	> 200	> 200	> 200	> 200	growth of intracellular M. tuberculosis on agar plates [9, 13]: negligible inhibition; growth of intracellular M. tuberculosis on agar plates [9, 14]: unaffected
Cc1ccc(C2=Nc3c(c(C)nn3-c3ccccc3)N=C(C(=O)O)C2)cc1 [Compound I-34, 3-methyl-7-(4-methylphenyl)-1-phenyl-1,6-dihydropyrazolo[3,4-b][1,4]diazepine-5-carboxylic acid]	≤ 69.8 µM and 17 µM and 16.7 µM	17	competing with DNA	86 µg/mL and 86.6 ± 7.8 µg/mL	86.6 (≈ 242 µM)	> 200	> 200	> 200	> 200	effect of iron on the inhibitory potential [4]: no effect; growth of intracellular M. tuberculosis on agar plates [9, 13]: negligible inhibition; also recorded: unable to limit the growth of intracellular bacteria; growth of intracellular M. tuberculosis on agar plates [9, 14]: unaffected
CC(NCc1c(O)ccc2ccc(=O)oc12)C(=O)O (centres unmarked) [Compound I-39]	53.9 µM	54	competing with DNA	–	–	–	–	–	–	–
O=S(=O)(O)c1ccc(O)c(N=Nc2c(O)ccc3ccccc23)c1 [Compound I-42, Benzene sulfonic acid,4-hydroxy-3-[(2-hydroxy-1-naphthalenyl)azo]-monosodium salt]	≤ 72.6 µM and 2.9 µM	2.72	competing with DNA	–	–	–	–	–	–	effect of iron on the inhibitory potential [4]: no effect
Cc1ccc(S(=O)(=O)C2CC(=O)N(c3ccc(F)c(Cl)c3)C2=O)cc1 (centres unmarked) [Compound I-108, 1-(3-chloro-4-fluorophenyl)-3-[(4-methylphenyl)sulfonyl]pyrrolidine-2,5-dione]	62.9 µM and 63.6 µM	63.6	–	17.5 ± 3.06 µg/mL	17.5 (≈ 45.8 µM)	168 ± 5.6 (≈ 439 µM)	> 200	> 200	> 200	Inhibition in THP1 (IC50 in µg/ml) [5]: slight toxicity; growth of intracellular M. tuberculosis on agar plates ([9]; at 150 μg/ml and 125 μg/ml, infected THP-1, 5 days): only a few pin pointed colonies; also recorded: pin point colonies; also recorded: able to limit the growth of intracellular bacteria; growth of intracellular M. tuberculosis on agar plates ([9]; at lower concentrations (100 to 25 μg/ml), infected THP-1, 5 days): prominent growth of bacilli
COc1ccc(-c2nc3ccccc3s2)cc1S(=O)(=O)O [IS-4, 5-(1,3-benzothiazol-2-yl)-2-methoxybenzenesulfonic acid]	45.1 µM	42.1	–	–	100 (≈ 311 µM)	166 ± 3.72 (≈ 516 µM)	164.7 ± 1.24 (≈ 512 µM)	173 ± 2.3 (≈ 538 µM)	176.3 ± 1.6 (≈ 549 µM)	Inhibition in THP1 (IC50 in µg/ml) [5]: slight toxicity; Inhibition in HEK (IC50 in µg/ml) [6]: slight toxicity; Inhibition in MDCK (IC50 in µg/ml) [7]: slight toxicity; Inhibition in HepG2 (IC50 in µg/ml) [8]: slight toxicity
Nc1ccc(-c2nc3ccccc3s2)cc1 [IS-54, 4-(1,3-benzothiazol-2-yl)aniline]	49.5 µM	49.6	–	84.8 ± 8 µg/mL	84.8 (≈ 375 µM)	182 ± 5.2 (≈ 802 µM)	161 ± 4.22 (≈ 712 µM)	174 ± 6.4 (≈ 770 µM)	167 ± 3.78 (≈ 740 µM)	Inhibition in THP1 (IC50 in µg/ml) [5]: slight toxicity; Inhibition in HEK (IC50 in µg/ml) [6]: slight toxicity; Inhibition in MDCK (IC50 in µg/ml) [7]: slight toxicity; Inhibition in HepG2 (IC50 in µg/ml) [8]: slight toxicity
CO[C@H]1/C=C/O[C@@]2(C)Oc3c(C)c(O)c4c(O)c(c(/C=N/N5CCN(C)CC5)c(O)c4c3C2=O)NC(=O)/C(C)=C\C=C\[C@H](C)[C@H](O)[C@@H](C)[C@@H](O)[C@@H](C)[C@H](OC(C)=O)[C@@H]1C [Rifampicin, reference compound]	–	–	–	–	0.05 to 0.2 (≈ 0.0608 to 0.243 µM)	> 100	> 100	> 100	> 100	–
B1	–	–	–	–	–	–	–	–	–	binding result [10]: binds
